Test results taken from patent US20230012560A1, “HEPATITIS B ANTIVIRAL AGENTS” (TAIGEN BIOTECHNOLOGY CO., LTD., priority 2019, published 2023).

Tested on: HBV (HepAD38 cells)
Experiment: Real-Time PCR Assay (extracellular HBV DNA from HepAD38 culture supernatants)
Format: cell-based
Conditions: Hepatitis B virus, 120 h, compound treatment for 5 days without tetracycline, extracellular DNA in culture supernatant quantified by real-time PCR, read-out: EC50 (50% effective concentration)
Procedure: HepAD38 cells were seeded and cultured on 96-well plates. After incubation for 2 days, cells were fed with compound-containing media without tetracycline. After compound treatment for 5 days, culture supernatants were collected. Extracellular DNA was then extracted using LabTurbo DNA mini kit, and quantified by real-time PCR.
Real-time PCR was performed using an ABI QuantStudio 3 system in a 96-well optical plate format. The PCR mixture containing forward primer (5′-[…]-3′) (SEQ ID NO.1), reverse primer (5′-GGTGAGTGATTGGAGGTTG-3′) (SEQ ID NO.2) and Luna Universal qPCR Master Mix in a final volume of 24 μl was incubated at 95° C. for 10 min followed by 45 cycle of incubation at 95° C. for 10 s and 60° C. for 10 s. Regression analysis was performed using GraphPad Prism 5 to calculate the 50% effective concentration (EC50) values.

`CC[C@@H](C)NC(=O)C(=O)N1CCC(NS(=O)(=O)c2cn(C)c(C(=O)Nc3cc(F)c(F)c(F)c3)c2F)CC1` [Compound 75] showed an EC50 of under 100 nM.
Work on `CCNC(=O)C(=O)N1CCC(NS(=O)(=O)c2cn(C)c(C(=O)Nc3cc(F)c(F)c(F)c3)c2Cl)CC1` [Compound 76] yielded an EC50 of under 100 nM.
Work on `O=C(NC1CC1)C(=O)N1CCC(NS(=O)(=O)c2c(F)c(C(=O)Nc3cc(F)c(F)c(F)c3)n3c2CCC3)CC1` [Compound 77] yielded an EC50 of under 100 nM.
`CCNC(=O)C(=O)N1CCC(NS(=O)(=O)c2c(Cl)c(C(=O)Nc3cc(F)c(F)c(F)c3)n3c2CCC3)CC1` [Compound 78] gave an EC50 of under 100 nM.
In the case of `CCNC(=O)C(=O)N1CCC(NS(=O)(=O)c2c(C)c(C(=O)Nc3cc(F)c(F)c(F)c3)n3c2CCC3)CC1` [Compound 79], the EC50 is reported as 300 to 1000 nM.
Work on `CCNC(=O)C(=O)N1CCC(NS(=O)(=O)c2c(F)c(C(=O)Nc3ccc(F)c(F)c3)n(C)c2C)CC1` [Compound 80] yielded an EC50 of under 100 nM.
Compound `CCNC(=O)C(=O)N1CCC(NS(=O)(=O)c2c(F)c(C(=O)Nc3cc(F)c(F)c(F)c3)n(C)c2Br)CC1` [Compound 81] has an EC50 of under 100 nM.
In the case of `CCNC(=O)C(=O)N1CCC(C)(NS(=O)(=O)c2cn(C)c(C(=O)Nc3cc(F)c(F)c(F)c3)c2F)CC1` [Compound 82], the EC50 is reported as 100 to 300 nM.
For `CCNC(=O)C(=O)N1CCC(NS(=O)(=O)c2cn(C)c(C(=O)Nc3ccc(F)c(F)c3)c2F)C(C)C1` (centres unmarked) [Compound 83], the EC50 was under 100 nM.
In the case of `CCNC(=O)C(=O)N1CCC(NS(=O)(=O)c2cn(C)c(C(=O)Nc3cc(F)c(F)c(F)c3)c2Cl)CC1C` (centres unmarked) [Compound 84], the EC50 is reported as under 100 nM.
`CCNC(=O)C(=O)N1CCC2(NS(=O)(=O)c3cn(C)c(C(=O)Nc4cc(F)c(F)c(F)c4)c3F)CC2C1` (centres unmarked) [Compound 85] gave an EC50 of under 100 nM.
In the case of `CCNC(=O)C(=O)N1CCC(NS(=O)(=O)c2cn(C)c(C(=O)Nc3cc(F)c(F)c(F)c3)c2F)C(C)(C)C1` (centres unmarked) [Compound 86], the EC50 is reported as under 100 nM.
Work on `CCNC(=O)C(=O)N1CCC(NS(=O)(=O)c2cn(C)c(C(=O)Nc3cc(F)c(F)c(F)c3)c2Cl)C2(CC2)C1` (centres unmarked) [Compound 87] yielded an EC50 of under 100 nM.
`CCNC(=O)C(=O)N1CCC(NS(=O)(=O)c2cn(C)c(C(=O)Nc3cc(F)c(F)c(F)c3)c2F)CC12CC2` (centres unmarked) [Compound 88] showed an EC50 of under 100 nM.
For `CCNC(=O)C(=O)N1CCC(NS(=O)(=O)c2cn(/C=C/F)c(C(=O)Nc3cc(F)cc(Cl)c3)c2F)CC1` [Compound 90], the EC50 was under 100 nM.
For `Cn1cc(S(=O)(=O)NC2CCN(C(=O)C(=O)NC3COC3)CC2(F)F)c(F)c1C(=O)Nc1ccc(F)c(F)c1` (centres unmarked) [Compound 92], the EC50 was under 100 nM.
Compound `Cn1cc(S(=O)(=O)NC2CCN(C(=O)C(=O)NC3(C)CC3)CC2(F)F)c(Cl)c1C(=O)Nc1cc(F)c(F)c(F)c1` (centres unmarked) [Compound 93] has an EC50 of under 100 nM.
With `CCNC(=O)C(=O)N1CC[C@@H](NS(=O)(=O)c2cn(C)c(C(=O)Nc3ccc(F)c(F)c3)c2F)C(F)(F)C1` [Compound 94] the EC50 was under 100 nM.
In the case of `CCNC(=O)C(=O)N1CC[C@@H](NS(=O)(=O)c2cn(C)c(C(=O)Nc3ccc(F)c(F)c3)c2F)[C@@H](F)C1` [Compound 96], the EC50 is reported as under 100 nM.
For `CC(C)NC(=O)C(=O)N1CC[C@@H](NS(=O)(=O)c2cn(C)c(C(=O)Nc3cc(F)c(F)c(F)c3)c2F)[C@@H](C)C1` [Compound 97], the EC50 was under 100 nM.
`CCCNC(=O)C(=O)N1CC[C@@H](NS(=O)(=O)c2cn(C)c(C(=O)Nc3cc(F)c(F)c(F)c3)c2F)C(F)(F)C1` [Compound 98] showed an EC50 of under 100 nM.
Compound `CCNC(=O)C(=O)N1CC[C@@H](NS(=O)(=O)c2cn(C)c(C(=O)Nc3ccc(F)c(F)c3)c2F)C(C)(C)C1` [Compound 99] has an EC50 of under 100 nM.
For `CNC(=O)C(=O)N1C[C@@H]2[C@H](C1)[C@@H]2NS(=O)(=O)c1cn(C)c(C(=O)Nc2cc(F)c(F)c(F)c2)c1F` [Compound 100], the EC50 was under 100 nM.
